Test results: PubChem BioAssay (NCI)
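All cell lines were grown in 96-well plates and treated with compound for 48 hours. GI50: concentration for 50% inhibition of growth. TGI marks complete inhibition of growth.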

How the values were obtained:
Assay in all cases: NCI tumour cell line growth inhibition, 48 h
MDA-N = tested on: MDA-N
DLD-1 colon = tested on: DLD-1 colon
DMS 273 small cell lung = tested on: DMS 273 small cell lung
KM20L2 colon = tested on: KM20L2 colon
LXFL 529 NSCLC = tested on: LXFL 529 NSCLC
M19-MEL melanoma = tested on: M19-MEL melanoma
RXF-631 renal = tested on: RXF-631 renal
SNB-78 CNS = tested on: SNB-78 CNS
HOP-18 NSCLC = tested on: HOP-18 NSCLC

Row | SMILES | TGI (MDA-N) | TGI (DLD-1 colon) | TGI (DMS 273 small cell lung) | TGI (KM20L2 colon) | TGI (LXFL 529 NSCLC) | TGI (M19-MEL melanoma) | TGI (RXF-631 renal) | TGI (SNB-78 CNS) | TGI (HOP-18 NSCLC) | other results
1 | O=C(O)C1C2CCC(O2)C1C(=O)NCc1cccnc1 (stereo unspecified) | > 100 µM |  |  |  |  |  |  |  |  | 
2 | COC(=O)c1cc2c(nc1C)-c1ccccc1OS2(=O)=O |  | > 100 µM | > 100 µM | > 100 µM | > 100 µM | > 100 µM | > 100 µM | > 100 µM |  | 
3 | CSc1nc(SC)c2c(C)cn(C3OC(C)C(O)C(O)C3O)c2n1 (stereo unspecified) | > 100 µM |  |  |  |  |  |  |  |  | 
4 | O=C(O)c1c[nH]c2c(ccc3[nH]cc(C(=O)O)c(=O)c32)c1=O | > 100 µM |  |  |  |  |  |  |  |  | 
5 | O=C(NC(Cc1ccccc1)C(=O)CCl)OCc1ccccc1 (stereo unspecified) |  | 21.5 µM | 16.4 µM | 20.2 µM | 13.9 µM | 27.3 µM |  | 50 µM | 24 µM | 
6 | Cc1cc(Cl)ccc1Nc1nc2c(s1)C(=O)c1ccccc1C2=O |  | 12.5 µM | 5.71 µM | 39.4 µM | 12.8 µM | 2.06 µM | 20.2 µM | > 80.9 µM | 12.5 µM | 
7 | COc1ccc(/C=C/C(=O)c2ccccc2)cc1OC | 15.3 µM |  |  |  |  |  |  |  |  | 
8 | COC(=O)Cc1nn2c(nc1=O)sc1ccc3ccccc3c12 |  | > 100 µM |  | > 100 µM | > 100 µM | > 100 µM | > 100 µM |  | > 100 µM | 
9 | COc1cc2oc(-c3ccc(O)cc3)cc(=O)c2c(OC)c1O | > 100 µM |  |  |  |  |  |  |  |  | 
10 | NC(CSC1(c2ccc(Cl)cc2)c2ccccc2-c2ccccc21)C(=O)O (stereo unspecified) | > 100 µM |  |  |  |  |  |  |  |  | 
11 | C=C1CCC2(C(C)=O)COC1(C)O2 (stereo unspecified) |  | > 100 µM | > 100 µM |  |  | > 100 µM |  |  | > 100 µM | 
12 | COc1ccc2c(c1)CC1N(C)CCC13CCCCC23 (stereo unspecified) | > 100 µM |  |  |  |  |  |  |  |  | 
13 | O=C1CCCCCCCCCCOC(=O)CCCCCCCCCCO1 |  | > 100 µM | > 100 µM |  | > 100 µM | > 100 µM |  | > 100 µM | > 100 µM | 
14 | CN(CCCCN)c1ccc2c(=O)[nH][nH]c(=O)c2c1 |  | > 100 µM | > 100 µM |  | > 100 µM | > 37 µM |  | > 100 µM | > 100 µM | 
15 | COc1c(OC)c(OC)c(-c2cc(=O)c3c(OC)c(OC)c(OC)c(OC)c3o2)c(OC)c1OC | > 100 µM |  |  |  |  |  |  |  |  | 
16 | CCOC(=O)CP(=S)(S)c1ccccc1 (stereo unspecified) |  | > 100 µM | > 100 µM | > 100 µM | > 100 µM | > 100 µM |  | > 100 µM |  | 
17 | C1=CC(=NN=P(c2ccccc2)(c2ccccc2)c2ccccc2)C=C1 |  | > 100 µM | > 100 µM | > 100 µM | > 100 µM | > 100 µM |  |  |  | 
18 | O=Cc1cn(S(=O)(=O)c2ccccc2)c2ccccc12 |  | > 100 µM |  | > 100 µM | > 100 µM | > 100 µM | > 100 µM | > 100 µM | > 100 µM | 
19 | CC(O)c1ccc(C(O)/C(=N\NC(=O)c2ccncc2)c2nc3ccc([N+](=O)[O-])cc3[nH]c2=O)cc1 (stereo unspecified) |  | > 100 µM | > 100 µM | > 100 µM | > 100 µM | > 100 µM | > 100 µM | > 100 µM |  | 
20 | CC(=O)Nc1ccc(Cc2ccc3[nH]c(=O)cc(C)c3c2)cc1 | > 100 µM |  |  |  |  |  |  |  |  | 
21 | O=[P+](O)c1cccnc1 |  | > 100 µM | > 100 µM | > 100 µM | > 100 µM | > 100 µM | > 100 µM | > 100 µM |  | 
22 | C=CNC(=S)n1nc(-c2ccccc2NC(=O)C(F)(F)F)c(=O)n(C(=S)NC=C)c1=S |  | 49.3 µM | > 100 µM |  | > 100 µM | > 100 µM |  | > 100 µM |  | 
23 | C1C[S][Ge]2([S]CCS1)[S]CCSCC[S]2 |  | > 100 µM | > 100 µM |  | > 100 µM | > 100 µM |  | > 100 µM |  | GI50 (DLD-1 colon): > 100 µM; GI50 (DMS 273 small cell lung): > 100 µM; GI50 (LXFL 529 NSCLC): > 100 µM; GI50 (M19-MEL melanoma): > 100 µM; GI50 (SNB-78 CNS): > 100 µM
24 | CCCCC1N=CNc2c1ccc1c2[nH]c2ccccc21 (stereo unspecified) | 3.28 µM | 6.3 µM | 3.38 µM |  | 3.78 µM | 11.8 µM | 5.97 µM | 38.6 µM | 22.5 µM | 
25 | C/C(CC(=O)Nc1ccc([N+](=O)[O-])cc1)=N\Nc1ccc([N+](=O)[O-])cc1[N+](=O)[O-] |  | > 100 µM | > 100 µM | > 100 µM | > 100 µM | > 100 µM | > 100 µM | > 100 µM |  | 
26 | C[C@H]1CCC2C(CN3CCCCC3)C(=O)OC2[C@]2(C)C(=O)CC(N3CCCCC3)C12O (stereo partly specified) |  | 16 µM | 23.4 µM |  |  | 23.9 µM | 3.71 µM | > 100 µM | 48.4 µM | 
27 | c1cnc2nc3n(c2c1)CSC3 |  | > 100 µM |  | > 100 µM | > 100 µM | > 100 µM |  | > 100 µM |  | 
